This test has as its system human fecal bacteria. As to the kind of experiment: Measure of prebiotic effect (MPE), stirred pH-controlled batch culture fermentations. Format: cell-based. On the procedure:
Quantitative in vitro methods are known for measuring the prebiotic effect of a fiber. The measurable effect a fiber has on the growth of major bacterial species in the human gut, bifidobacteria and lactobacilli in particular, is the measure of the prebiotic effect (MPE). MPE has three components:
1. the rate fiber is fermented;
2. the changes in bacterial populations; and
3. the production of SCFA.
The rate of fiber fermentation is determined by the change in the concentration of fiber over time. Thus, the quicker the fiber concentration decreases, the faster the rate of fermentation by bacteria. Changes in bacterial populations are measured by the “prebiotic index,” which considers increases in the growth rate of bifidobacteria, lactobacilli, and eubacteria as positive effects and increases in bacteriodes, clostridia, Escherichia coli, and sulphate-reducing bacteria as negative effects. Different fibers support the growth of distinct bacteria and therefore yield varying patterns and/or amounts of SCFA. However, the prebiotic effect is usually associated with lactic acid-producing bacteria, bifidobacteria and lactobacilli being principle lactic acid producers. Therefore, the ratio of lactic acid production relative to the total SCFA production provides a qualitative as well as quantitative assessment of the fibers being examined. The MPE provides a quantitative analysis of the prebiotic potential of a fiber and provides further support for the benefits of specific fibers. Therefore, the MPE is a useful tool in identifying the types and specific amounts of fiber that promote optimal digestive health and prevent or treat intestinal diseases.
Each value is based on stirred, pH-controlled batch culture fermentations using 0.25%, 0.5%, and 1.0% (w/v) substrates in the presence of human fecal bacteria.

SMILES strings stand for the structures.

As for `OC[C@H]1O[C@@](CO)(O[C@H]2O[C@H](CO)[C@@H](O)[C@H](O)[C@H]2O)[C@@H](O)[C@@H]1O` [Sucrose], the MPE was −0.3 (0.25% (w/v) substrate), −0.3 (0.5% (w/v) substrate) and −0.6 (1% (w/v) substrate).

The values are drawn from US8530447B2, “Dietary fiber formulation and method of administration” (Nestec S.A., priority 2005, dated 2013).
